In patent US11214561B2, “Histone methyltransferase EZH2 inhibitor, preparation method and pharmaceutical use thereof” (ANCUREALL PHARMACEUTICAL (SHANGHAI) CO., LTD., priority 2017, dated 2022):

Columns and labels:
[1] = tested on: Pfeiffer (EZH2 A677G); test: In vitro 50% growth inhibition (GI50), MTT/CCK8, Pfeiffer cells; assay type: cell-based, Human; settings: for GI50: Homo sapiens, Pfeiffer, 240 h, Drug treatment for 10 days; for growth inhibitory activity / GI50 level against Pfeiffer, in words: EZH2 A677G mutant cells Pfeiffer
Text: (§1) In the present invention, a representative tumor cell line was selected to determine the cell growth inhibition activity of the present compound. Cell culture conditions and methods were in accordance with the requirements for each cell lines. The cells were subcultured in vitro for less than 3 generations each time, and as required, monoclone purification and identification of cell lines could be carried out.
(§2) The cell culture media used were RPMI1640 (Gibco) comprising 5-20% of fetal bovine serum (Gibco), 1% of double-antibiotic and 2 mM of glutamine.
(§3) Suspension culture cells were collected by centrifugation (1700 rpm, 3 minutes), and the supernatant was discarded and the cells were counted. According to each cell growth cycle, different concentrations of cells were prepared (1-10×10^4 cells per ml) and added to 96-well plates (Corning) with 100 μl per well, and then incubated overnight at 37° C., 5% CO2. The next day, the test compound was added to the cultured cells (2 wells in parallel). The final concentration of the solvent was less than 1/1,000. The cells were further cultured for 6 to 12 days and assayed by MTT.
(§4) The compound was stored at a concentration of 10 mM at −20° C. and diluted to two-fold or 10-fold series prior to use.
(§5) For the suspension culture cells, CCK8 was directly added to 10% of the final concentration. The cells were continually incubated for […].
(§6) The experiments were repeated 3 times and a statistical analysis of data was conducted.

[2] = tested on: SU-DHL-8 (EZH2 WT); test: In vitro 50% growth inhibition (GI50), MTT/CCK8, SU-DHL-8 cells; assay type: cell-based; settings: Homo sapiens, SU-DHL-8, 144 h; Drug treatment for 6 days
Text: as §1, §2, §3, §4, §5, §6

[3] = tested on: Karpas-422 (EZH2 Y641N); test: In vitro 50% growth inhibition (GI50), MTT/CCK8, Karpas-422 cells; assay type: cell-based; settings: Homo sapiens, KARPAS-422, 144 h; Drug treatment for 6 days
Text: as §1, §2, §3, §4, §5, §6

| GI50 [2] [nM] | GI50 [3] [nM] | Compound | GI50 [1] [nM] | growth inhibitory activity / GI50 level against Pfeiffer, in words [1] |
| --- | --- | --- | --- | --- |
| > 1000 | 100 to 1000 | C=CC(=O)N1CCC(N(CC)c2cc(OC)cc(C(=O)NCc3c(C)cc(C)[nH]c3=O)c2C)C1 (centres unmarked) [Example 16, 3-[(1-acryloyl-pyrrolidin-3-yl)-ethyl-amino]-5-methoxy-N-(4,6-dimethyl-2-oxo-1,2-dihydrogen-pyridin-3-ylmethyl)-2methyl-benzamide] | 10 to 100 |  |
| > 1000 | 10 to 100 | C=CC(=O)N1CCC(N(CC)c2cc(-c3cccc(CN4CCCN(C)CC4)c3)cc(C(=O)NCc3c(C)cc(C)[nH]c3=O)c2C)CC1 [Example 75, N-(4,6-dimethyl-2-oxo-1,2-dihydro-pyridin-3-ylmethyl)-5-[(1-acryloyl-piperidin-4-yl)-ethyl-amino]-4-methyl-3′-(4-methylhomopiperazin-1-ylmethyl)-[1,1′-biphenyl]-3-carboxamide] | 1 to 10 |  |
| > 1000 | 10 to 100 | C=CC(=O)N1CCC(N(CC)c2cc(-c3ccc(CN4CCC(OCCOC)CC4)cc3)cc(C(=O)NCc3c(C)cc(C)[nH]c3=O)c2C)CC1 [Example 77, N-(4,6-dimethyl-2-oxo-1,2-dihydro-pyridin-3-ylmethyl)-5-[(1-acryloyl-piperidin-4-yl)-ethyl-amino]-4-methyl-4′-[4-(2-methoxyethyloxy)-piperidin-1-ylmethyl]-[1,1′-biphenyl]-3-carboxamide] | < 1 | subnanomolar level |
| > 1000 | 100 to 1000 | C=CC(=O)N1CCC(N(CC)c2cc(-c3ccc(N4CCOCC4)cc3)cc(C(=O)NCc3c(C)cc(C)[nH]c3=O)c2C)C1 (centres unmarked) [Example 24, N-(4,6-dimethyl-2-oxo-1,2-dihydro-pyridin-3-ylmethyl)-5-[(1-acryloyl-pyrrolidin-3-yl)-ethyl-amino]-4′-(morpholin-4-yl)-4-methyl-biphenyl-3-carboxamide] | 1 to 10 |  |
| > 1000 | 100 to 1000 | C=CC(=O)N1CCC(N(CC)c2cc(-c3ccc(CN4CCOCC4)c(Cl)c3)cc(C(=O)NCc3c(C)cc(C)[nH]c3=O)c2C)C1 (centres unmarked) [Example 21, N-(4,6-dimethyl-2-oxo-1,2-dihydro-pyridin-3-ylmethyl)-5-[(1-acryloyl-pyrrolidin-3-yl)-ethyl-amino]-3′-chloro-4′-(morpholin-4-ylmethyl)-4-methyl-biphenyl-3-carboxamide] | 1 to 10 |  |
| > 1000 | 100 to 1000 | C=CC(=O)N1CCC(N(CC)c2cc(-c3ccc(OCCN4CCOCC4)cc3)cc(C(=O)NCc3c(C)cc(C)[nH]c3=O)c2C)C1 (centres unmarked) [Example 48, N-(4,6-dimethyl-2-oxo-1,2-dihydro-pyridin-3-ylmethyl)-5-[(1-acryloyl-pyrrolidin-3-yl)-ethyl-amino]-4-methyl-4′-[2-(morpholin-4-yl)-ethoxy]-[1,1′-biphenyl]-3-carboxamide] | 10 to 100 |  |
| > 1000 | 10 to 100 | C=CC(=O)N1CCC(N(CC)c2cc(-c3ccc(N4CCOCC4)nc3)cc(C(=O)NCc3c(C)cc(C)[nH]c3=O)c2C)C1 (centres unmarked) [Example 52, N-(4,6-dimethyl-2-oxo-1,2-dihydro-pyridin-3-ylmethyl)-3-[(1-acryloyl-pyrrolidin-3-yl)-ethyl-amino]-2-methyl-5-[6-(morpholin-4-yl)-pyridin-3-yl]-benzamide] | 1 to 10 |  |
| > 1000 | 10 to 100 | CC#CC(=O)N1CCC(N(CC)c2cc(Br)cc(C(=O)NCc3c(C)cc(C)[nH]c3=O)c2C)C1 (centres unmarked) [Example 15] | 1 to 10 |  |
| > 1000 | 10 to 100 | C=CC(=O)N1CCC(N(CC)c2cc(-c3ccc(CN4CCOCC4)c(F)c3)cc(C(=O)NCc3c(C)cc(C)[nH]c3=O)c2C)C1 (centres unmarked) [Example 23, N-(4,6-dimethyl-2-oxo-1,2-dihydro-pyridin-3-ylmethyl)-5-[(1-acryloyl-pyrrolidin-3-yl)-ethyl-amino]-3′-fluoro-4′-(morpholin-4-ylmethyl)-4-methyl-biphenyl-3-carboxamide] | 1 to 10 |  |
| > 1000 | 10 to 100 | C=CC(=O)N1CCC(N(CC)c2cc(Br)cc(C(=O)NCc3c(C)cc(C)[nH]c3=O)c2C)C1 (centres unmarked) [Example 1, 3-[(1-acryloyl-pyrrolidin-3-yl)-ethyl-amino]-5-bromo-N-(4,6-dimethyl-2-oxo-1,2-dihydro-pyridin-3-ylmethyl)-2-methyl-benzamide] | 1 to 10 |  |
| > 1000 | 10 to 100 | C=CC(=O)N1CCC(N(CC)c2cc(-c3ccc(CN4CCC5(CCCO5)CC4)cc3)cc(C(=O)NCc3c(C)cc(C)[nH]c3=O)c2C)CC1 [Example 87, N-(4,6-dimethyl-2-oxo-1,2-dihydro-pyridin-3-ylmethyl)-5-[(1-acryloyl-piperidin-4-yl)-ethyl-amino]-4-methyl-4′-(1-oxa-8-aza-spiro[4.5]decan-8-ylmethyl)-[1,1′-biphenyl]-3-carboxamide] | < 1 | subnanomolar level |
